Data as given in publication PMC9653173, “Trotabresib (CC-90010) in combination with adjuvant temozolomide or concomitant temozolomide plus radiotherapy in patients with newly diagnosed glioblastoma” (Neuro-Oncology Advances, 2022).
Several values for one entry are separate records, joined by “and”; a condition that tells them apart may be missing. Equal entries are not always repeated. Where two headings read alike, the source gives them in different places.

Assays:
[1] = tested on: patients with newly diagnosed glioblastoma
Description: The phase Ib, dose-escalation part of this study explored escalating oral doses of trotabresib in combination with TMZ in the adjuvant setting and with TMZ plus RT in the concomitant setting. […] Dose-escalation decisions were made by the safety review committee, based on all available safety, pharmacokinetics, pharmacodynamics, and preliminary efficacy information, and a calculation of risk assessment using a Bayesian logistic regression model.
The primary endpoints of the study were to determine the safety and tolerability, maximum tolerated dose, and/or recommended phase II dose (RP2D) of trotabresib in combination with TMZ as adjuvant therapy, and with TMZ and RT as concomitant therapy. […] Trotabresib pharmacodynamics was an exploratory endpoint.
Adverse events (AEs) were classified using the Medical Dictionary for Regulatory Activities v18.1 or higher system organ class and preferred term. Severity of AEs was graded based on the patient’s symptoms according to the National Cancer Institute Common Terminology Criteria for Adverse Events v5.0.[35] Dose-limiting toxicities (DLTs) were defined as any of the toxicities described in Supplementary Table S2 occurring within the DLT assessment period (cycle 1 [28 days]), unless the event could clearly be determined to be unrelated to trotabresib. Screening MRI scans were performed after surgical resection and within 28 days (+3 days) prior to initiation of study treatment. Subsequent tumor assessments by MRI or CT were performed at week 10 during the concomitant treatment period and at the end of every other treatment cycle from cycle 2 onwards during the adjuvant and trotabresib monotherapy treatment periods. Best overall response (BOR) was evaluated as complete response (CR), partial response (PR), SD, progressive disease (PD), or not evaluable, according to Response Assessment in Neuro-Oncology criteria for high-grade glioma.[36] Plasma samples were collected during the first treatment cycle for investigation of trotabresib pharmacokinetics and pharmacodynamics. Plasma pharmacokinetic parameters assessed included peak plasma concentration (Cmax), time to peak plasma concentration (tmax), area under the plasma concentration–time curve (AUC), and terminal half-life (t½). Pharmacodynamic markers assessed included blood levels of CCR1 and HEXIM1 mRNA, which are established markers of BET inhibitor target engagement.[17],[22],[37],[38]

CCR1 mRNA = experiment: Blood CCR1 mRNA pharmacodynamics; assay type: in vivo, human
MYC = conditions: in vitro; ref Bristol Myers Squibb; data on file; cited from earlier work
[2] = concomitant overall (N = 14), related to labelled drug(s)

Cn1cc(-c2cc(S(C)(=O)=O)ccc2OCC2CC2)c2ccccc2c1=O [Trotabresib]
no decrease in CCR1 expression: Blood CCR1 mRNA modulation (CCR1 mRNA; trotabresib 15 mg, adjuvant or concomitant cohorts)
14 (100) n (%): Any TRAE, any grade [1, 2]
6 (43%) n (%) and 6 (43) n (%): Thrombocytopenia TRAE, grade 3/4 [1, 2]
≤ 168 h: Time to return of CCR1 mRNA expression to baseline levels (CCR1 mRNA; RP2D 30 mg, post-dose in cycle 1)
9 (64%) n (%) and 9 (64) n (%): Thrombocytopenia TRAE, any grade [1, 2]
5 (36) n (%): Dysgeusia TRAE, any grade [1, 2] | Fatigue TRAE, any grade [1, 2] | Vomiting TRAE, any grade [1, 2]
4 (29) n (%): Neutropenia TRAE, grade 3/4 [1, 2]
1 (7) n (%): ALT increased TRAE, any grade [1, 2] | ALT increased TRAE, grade 3/4 [1, 2] | AST increased TRAE, any grade [1, 2] | Diarrhea TRAE, grade 3/4 [1, 2] | Fatigue TRAE, grade 3/4 [1, 2] | Hyperglycemia TRAE, any grade [1, 2] | Hypophosphatemia TRAE, any grade [1, 2] | Rash TRAE, any grade [1, 2]
6 (43) n (%): Neutropenia TRAE, any grade [1, 2]
7 (50) n (%): Any TRAE, grade 3/4 [1, 2]
no treatment-related deaths: Treatment-related deaths ([1]; both cohorts)
> 100,000 /mm^3: Platelet nadir ([1]; trotabresib 30 mg 4 days on/24 days off)
0 n (%): Vomiting TRAE, grade 3/4 ([1]; adjuvant overall (N = 18), related to labelled drug(s)) | AST increased TRAE, grade 3/4 [1, 2] | Acneiform dermatitis TRAE, grade 3/4 [1, 2] | Asthenia TRAE, grade 3/4 [1, 2] | Blood bilirubin increased TRAE, grade 3/4 [1, 2] | Decreased appetite TRAE, grade 3/4 [1, 2] | Dysgeusia TRAE, grade 3/4 [1, 2] | Dyspepsia TRAE, grade 3/4 [1, 2] | Hyperbilirubinemia TRAE, grade 3/4 [1, 2] | Hyperglycemia TRAE, grade 3/4 [1, 2] | Hypophosphatemia TRAE, grade 3/4 [1, 2] | Hypotension TRAE, any grade [1, 2] | Hypotension TRAE, grade 3/4 [1, 2] | Insomnia TRAE, any grade [1, 2] | Insomnia TRAE, grade 3/4 [1, 2] | Intracranial hemorrhage TRAE, any grade [1, 2] | Intracranial hemorrhage TRAE, grade 3/4 [1, 2] | Leukopenia TRAE, any grade [1, 2] | Leukopenia TRAE, grade 3/4 [1, 2] | Lymphopenia TRAE, grade 3/4 [1, 2] | Nausea TRAE, grade 3/4 [1, 2] | Pruritus TRAE, any grade [1, 2] | Pruritus TRAE, grade 3/4 [1, 2] | Rash TRAE, grade 3/4 [1, 2] | Seizure TRAE, grade 3/4 [1, 2] | Vomiting TRAE, grade 3/4 [1, 2]
≥ 50%: Blood CCR1 mRNA expression, lower than at baseline (CCR1 mRNA; RP2D 30 mg, day 4, 2–4 h post-dose, adjuvant and concomitant settings)
2 (14) n (%): Anemia TRAE, grade 3/4 [1, 2] | Blood bilirubin increased TRAE, any grade [1, 2] | Diarrhea TRAE, any grade [1, 2] | Dyspepsia TRAE, any grade [1, 2] | Hyperbilirubinemia TRAE, any grade [1, 2] | Lymphopenia TRAE, any grade [1, 2] | Seizure TRAE, any grade [1, 2]
8 (57%) n (%) and 8 (57) n (%): Nausea TRAE, any grade [1, 2]
4 (29%) n (%): Rash and other skin-related TRAEs attributed to trotabresib only ([1]; concomitant overall)
3 (21) n (%): Acneiform dermatitis TRAE, any grade [1, 2] | Anemia TRAE, any grade [1, 2] | Asthenia TRAE, any grade [1, 2] | Decreased appetite TRAE, any grade [1, 2]
downregulated in vitro: MYC expression (MYC)
1 patient: Serious intracranial hemorrhage, attributed to trotabresib ([1]; adjuvant, trotabresib 30 mg) | Serious diarrhea, attributed to trotabresib ([1]; adjuvant, trotabresib 45 mg)
